Measured values reported in US9592243B2, “Medical devices and methods comprising an anabolic agent for treatment of an injury” (Warsaw Orthopedic, Inc., priority 2011, dated 2017).

Tested on: surgical injury (linear full-thickness incisions)
Experiment: Injury strength of full-thickness surgical incisions, vacuum failure pressure (BTC-2000)
Type: in vivo, male hairless guinea pigs
Description: In a recent proof-of-concept study, male hairless guinea pigs (n=30) receive bilateral incisions as previously described by Storch, Perry, Davidson, and Ward (Surg Infect (Larchmt) 2002; 3 Suppl 1:S89-98) This reference is herein incorporated by reference. Two linear full-thickness incisions exactly 2 cm long and separated by approximately 3 cm were made on the left and right dorsolateral regions of all animals. Incisions extend through the dermis and subcutaneous tissue and panniculus carnosus muscle. After the injuries were created, 200 μL of a […] aqueous suspension (1 mg of drug, ˜2.7 mg/kg) of generic stanozolol was applied directly into the injury bed in the right flank but not left flank of n=16 animals. The injury bed on the left side of these animals received 200 μL of saline vehicle control. In the remaining fourteen animals, incisions were not treated (nothing applied control). Only the incision in the right flank was assessed for injury strength in the nothing applied control animals. All injuries were then closed with interrupted nylon sutures. On days 2, 4, and 6 (in remaining animals), animals in the stanozolol group received 100 μL (0.5 mg, ˜1.4 mg/kg) of the same stanozolol suspension in the right injury and 100 μL of saline in the left injury, carefully injected with an insulin syringe introduced lateral to the injury and directed towards the injury bed. For each time point (days 5 and 7), injury strength was tested in 7 nothing applied control guinea pigs and 8 stanozolol guinea pigs after carefully removing dressing and sutures. Injury strength was measured by applying a vacuum to the injury and recording the pressure at which the injury fails. Biomechanical testing was performed under anesthesia using the […] (SRI Technologies, Nashville). A disposable acrylic test ring was placed around the injury and secured to the skin using acrylate glue. The BTC-2000™ test chamber (2.5 cm ID) was mated to the test ring. An escalating negative pressure was applied to the injury at a rate of 10 mm Hg/second, producing a multi-axial stress on the injury. […]

C[C@]12Cc3c[nH]nc3C[C@@H]1CC[C@@H]1[C@@H]2CC[C@@]2(C)[C@H]1CC[C@]2(C)O [stanozolol]
Effect on contralateral (saline treated, left flank) injuries in stanozolol treated animals (local stanozolol in right injury only, days 5 and 7): No effect | Injury strength when exposed to pressure, compared to injuries with control or placebo (FIG. 1) (locally injected bolus dose of 1 mg initially, then 0.5 mg on days 2, 4, 6, tested on days 5 and seven): highest injury strength | Injury strength (pressure at which the injury fails) compared to nothing applied control injuries (stanozolol aqueous suspension applied locally into right flank injury, 1 mg initially then 0.5 mg on days 2, 4, 6, tested on days 5 and 7): significantly stronger
